Here are results for 10 compounds from publication PMC8537458, “Anti-Inflammatory Azaphilones from the Edible Alga-Derived Fungus Penicillium sclerotiorum” (Marine Drugs, 2021).

Entries after “also recorded” stand apart in the source; their conditions may differ. Bounds are passed on as bounds.

Common to all, as to type: cell-based
The nature of data set [1]: MTT cytotoxicity assay, summary over the cell panel. The conditions noted are these: human; general density of 1 × 10^4/96-well; most cells / various cancer cells. How it is done: (§1) The cell lines A549, MCF-7, MDA-MB-231, SH-SY5Y, and WI-38 were purchased from Bioresource Collection and Research Centre (BCRC; Taiwan). […] Chin-Chung Wu (Kaohsiung Medical University, Taiwan), and HCT15 and HCT116 cells were given by Prof. Chen-Yang Shen (Academia Sinica, Taiwan). 1 × 10^3 or 1 × 10^4 cells were seeded in a 96-well one day before compounds treatment.
Background: Formazan colour is commonly taken as a measure of viable cells.

For a further data set, the system named is phospho-NFκB p65(S536). The experiment in a line: TNF-α-induced NFκB phosphorylation by immunoblotting. The conditions noted are these: 20 ng/mL TNF-α, 30 min, THP-1 cells, n = 3. How it is done: (§2) THP-1 monocyte cell line that was gifted from Prof. Tsung-Hsien Chang (National Defense Medical Center, Taiwan) was used to examine for TNF-α-induced NFκB phosphorylation; CCD966SK fibroblast cell line that purchased from Bioresource Collection and Research Centre (BCRC; Taiwan) was used to examine for TGF-β-induced Smad2/3 phosphorylation. The procedure of protein preparation, separation, blotting, and detection was conducted referred to previously. The primary antibodies against phospho-NFκB p65(S536), NFκB p65, phospho-Smad 2(S465/467)/Smad 3(S423/425), and Smad 2/3 were purchased from Cell Signaling (USA). The level of Gapdh expression served as an internal control for protein loading. The annotated number represents the quantified level from normalized by both NFκB p65/Smad 2/3 and Gapdh and calculated the fold change phospho-NFκB or phospho-Smad 2/3 to their DMSO vehicle control group by ImageJ software. IκB/IKK inhibitor BAY 11-7082 (Cayman) and TGFβRI inhibitor LY3200882 (Medchemexpres) as positive controls.
(§3) Statistical analysis was conducted via a one-tailed unpaired t-test in comparison compound treating group with the group only treated with TNF-α or TGF-β by Microsoft Excel software. The significance was annotated on plots of the result, * for p < 0.05, ** for p < 0.01, and *** for p < 0.001.

The subject of data set [2] is NFκB responsive element luciferase reporter in HEK293A cells. The experiment in a line: NFκB transcriptional activity reporter assay. The conditions noted are these: 20 ng/mL TNF-α, 24 h, n = 6. How it is done:
(§4) Reporter plasmids (Promega, Madison, WI, USA) with luciferase driven by NFκB or SMAD responsive elements were stably established in HEK293A cells and maintained by a puromycin-containing culture medium. Chemiluminescence levels represent the luciferase expression was determined by the ONE-Glo reagent (Promega, USA). The fold change of each group to the DMSO vehicle control group was calculated.
as §3
Background: A reporter such as luciferase makes a cellular process visible.

Data set [3] concerns phospho-Smad 2(S465/467)/Smad 3(S423/425). The experiment in a line: TGF-β-induced Smad2/3 phosphorylation by immunoblotting. Particulars: 20 ng/mL TGF-β, 30 min, CCD966SK fibroblasts, n = 3. How it is done: as §2, §3
(In western blotting, separated proteins are transferred to a membrane and probed.)

A further data set can be described thus: MTT cytotoxicity assay. The conditions noted are these: human, SH-SY5Y neuroblastoma cells. How it is done:
as §1

In the next data set the test system is SH-SY5Y. The data set can be described thus: MTT cytotoxicity assay. Particulars: among seven cancer and one fibroblast cell lines. How it is done:
as §1

Data set [4] relates to SMAD responsive element luciferase reporter in HEK293A cells. The experiment in a line: SMAD transcriptional activity reporter assay. The conditions noted are these: 20 ng/mL TGF-β, 24 h. How it is done: as §4, §3

A word on the IC50: it is the midpoint of a concentration-inhibition curve. Low readings indicate greater potency, high ones weaker potency. `COc1cccc2c1C(=O)c1c(O)c3c(c(O)c1C2=O)C[C@@](O)(C(=O)CO)C[C@@H]3O[C@H]1C[C@H](N)[C@H](O)[C@H](C)O1` [doxorubicin, reference compound]: in data set [1], the IC50 at 48 h fell in the range of 0.36 to 3.7 µM.

For the compound `CC[C@H](C)/C=C(C)/C=C/C1=CC2=C(Cl)C(=O)[C@](C)(O)[C@H](OC(C)=O)[C@H]2CO1` [Compound 7, isochromophilone IV], in the data set with phospho-NFκB p65(S536) (20 μM compound), the “TNF-α-induced NFκB phosphorylation” value was “inhibit; also recorded: significantly reduce”. Moreover, the “NFκB transcriptional activity by reporter assay” value (shortened to “NFκB transcriptional activity”) in data set [2] (20 μM compound) is recorded as “did not change; also recorded: remains”. The compound further gave an IC50 at 48 h in data set [1] above 100 µM.

As for `CC[C@H](C)[C@@H](O)[C@](C)(O)/C=C/C1=CC2=C(Cl)C(=O)[C@](C)(O)[C@H](OC(C)=O)[C@H]2CO1` [Compound 3, hypocrellone A], in the data set on phospho-NFκB p65(S536) (20 μM compound), the “TNF-α-induced NFκB phosphorylation” value was “inhibit; also recorded: significantly reduce”. Besides, the “NFκB transcriptional activity” value in data set [2] (20 μM compound) is listed as “did not change; also recorded: remains”. Moreover, the “TGF-β-induced Smad2/3 phosphorylation” value in data set [3] (20 μM compound) is on record as “decrease”. For the same compound, the half-inhibitory concentration (IC50) at 48 h in data set [1] was above 100 µM.

As to `CC[C@H](C)/C=C(C)/C=C/c1cc(O)c(C)c(O)c1C=O` [Compound 5, ((1E,3E)-3,5-dimethylhepta-1,3-dien-1-yl)-2,4-dihydroxy-3-methylbenzaldehyde], the half-maximal inhibitory concentration (IC50) at 48 h in data set [1] is above 100 µM.

With `Cc1ccc(S(=O)(=O)/C=C/C#N)cc1` [BAY 11-7082, reference compound], in the data set with phospho-NFκB p65(S536) (10 μM positive control), the “TNF-α-induced NFκB phosphorylation” value is recorded as “significantly reduce”. The “NFκB transcriptional activity” value in data set [2] (10 μM positive control) is “alter”.

Take `CCC(C)C(O)C(C)(O)C=CC1=CC2=C(Cl)C(=O)C(C)(O)C(OC(C)=O)C2CO1` (stereo not drawn) [Compound 1, 8a-epi-hypocrellone A]: the IC50 at 48 h in the data set “MTT cytotoxicity assay” (general density 1 × 10^4/96-well (Table 2)) was 35.6 µM; in “MTT cytotoxicity assay” (very low density 1 × 10^3/96-well (Table 3)), 26.8 µM; in data set [1] it was above 100 µM. Moreover, the “selective toxicity toward SH-SY5Y” value with SH-SY5Y was “selective toxicity”. Further, in the data set on phospho-NFκB p65(S536) (20 μM compound), the “TNF-α-induced NFκB phosphorylation” value was “inhibit; also recorded: significantly reduce”. The “NFκB transcriptional activity” value in data set [2] (20 μM compound) was “did not change; also recorded: remains”. For the same compound, in data set [4] (20 μM compound, n = 6), the “TGF-β-stimulated SMAD transcriptional activity” value is reported as “increased”.

Regarding `CC(C)(O)c1cc(Nc2cc(Oc3cn(C4CC4)nc3C3CCOCC3)ccn2)ccn1` [LY3200882, reference compound], the “TGF-β-induced Smad2/3 phosphorylation” value in data set [3] (1 μM positive control, listed as TGFβRI inhibitor) is “trend toward a decrease”. The “TGF-β-stimulated SMAD transcriptional activity” value in data set [4] (1 μM positive control, n = 6, listed as TGFβRI inhibitor) was “decreased”.

As for `CC[C@H](C)[C@@H](O)[C@@](C)(O)/C=C/C1=CC2=C(Cl)C(=O)[C@](C)(O)[C@H](OC(C)=O)[C@H]2CO1` [Compound 4, eupenicilazaphilone C], the “TGF-β-stimulated SMAD transcriptional activity” value in data set [4] (20 μM compound, n = 6) is on record as “increased”. Moreover, the IC50 at 48 h in data set [1] is above 100 µM.

As for `CCC(C)C(O)C(C)(O)C=CC1=CC2=C(Cl)C(=O)C(C)(O)C(OC(C)=O)C2CO1` (stereo not drawn) [Compound 2, 8a-epi-eupenicilazaphilone C], in data set [3] (20 μM compound), the “TGF-β-induced Smad2/3 phosphorylation” value was “significantly increase; also recorded: promote”. The “TGF-β-stimulated SMAD transcriptional activity” value in data set [4] (20 μM compound, n = 6) is “promote; also recorded: increased”.

With `CC[C@H](C)/C=C(C)/C=C/C1=CC2=C(Cl)C(=O)[C@](C)(OC(C)=O)C(=O)C2=CO1` [Compound 6, sclerotiorin], the “TGF-β-induced Smad2/3 phosphorylation” value in data set [3] (20 μM compound) is reported as “inhibited”. Also, in data set [4] (20 μM compound, n = 6), the “TGF-β-stimulated SMAD transcriptional activity” value is recorded as “inhibited; also recorded: decreased”. This compound also had an IC50 at 48 h in data set [1] above 100 µM.
